Test results taken from patent US4713457A, “Ergoline derivatives and acid addition salts thereof” (priority 1985, dated 1987).
Where a name gives a salt, the structure may show the parent alone.

How the values were obtained:
[1] = system: unanesthetized spontaneously hypertensive rats; experiment: Anti-hypertensive activity, systolic blood pressure, tail cuff method; format: in vivo, rat; settings: 10 mg/kg oral
Procedure: (§1) The anti-hypertensive activity of the compounds was determined by the tail cuff method using unanesthetized spontaneously hypertensive rats weighing 300 to 350 g (21 to 25 week old). In this experiment, the systolic blood pressure was determined by the bloodless method using a hemodynamometer. The heart rate was determined simultaneously using a sphygmometer connected to the pulse output. After rats were placed under condition of 40° C. for 10 minutes, the blood pressure was determined by holding the rats in a holder. The test compounds were suspended in a 0.5 wt% aqueous gum arabic. Hydralazine hydrochloride used as a comparative agent was administered as an aqueous solution thereof. The volume of oral administration was 0.5 ml per 100 g of body weight.

[2] = system: unanesthetized spontaneously hypertensive rats; experiment: Heart rate determined simultaneously with blood pressure (sphygmometer connected to the pulse output); format: in vivo, rat; settings: for Changes in Heart Rate: 10 mg/kg oral
Procedure: as §1

[3] = system: Rats, pylorus portion ligated (gastric secretion); experiment: Gastric secretion inhibitory activity in pylorus-ligated rats; format: in vivo, rat; settings: 10 mg/kg into the duodenum, 6 hours
Procedure: Rats weighing 200 to 250 g (8 rats per group) which have been fasting for 24 hours before testing were subjected to abdominal section under ether anesthesia, and the pylorus portion was ligated. Immediately after ligation, the test compound was administered into the duodenum as a suspension in a 5 wt% aqueous gum arabic at a volume of 2 ml/kg. The rats were sacrificed after 6 hours, and the stomach was extracted. The gastric juice was collected to determine the volume thereof, and the acidity of the gastic juice was titrated to a pH 7.0 with a 0.02N aqueous sodium hydroxide solution using a pH meter. The acid secretion amount per 6 hours (μEq/6 h) was calculated by (volume of gastric juice×acidity of gastric juice).

[4] = system: Donryu male rats, indomethacin ulcer; experiment: Anti-ulcer activity, indomethacin-induced ulcer; format: in vivo, rat; settings: 10 mg/kg oral, indomethacin 25 mg/kg
Procedure: The test compound was administered orally to Donryu male rats weighing 240 to 300 g (7 rats per group) which have been fasting for 24 hours before testing, and, after 30 minutes, indomethacin was administered orally to the rats at a dose of 25 mg/kg. The rats were then maintained for 7 hours without feeding water and foods and then sacrificed. The stomach was extracted and fixed by infusing 7.5 ml of a 2% formalin solution into the stomach. The stomach was incised along the greater curvature thereof, and length (mm) of each ulcer generated in gastric glands was determined. The total length of the ulcer per rat was expressed in terms of an ulcer index.
In this experiment, the test compound was suspended in a 0.5% aqueous gum arabic and administered at a volume of 5 ml/kg. Indomethacin (manufacturedby Sigma Co., Ltd.) was administered as a 0.5 wt% aqueous suspension in sodium carboxymethyl cellulose at a volume of 5 ml/kg. As a control, a 0.5 wt% suspension of aqueous gum arabic was orally administered at a volume of 5 ml/kg.

[5] = system: ddY male mice, KCN-induced anoxia; experiment: Activity on KCN-induced anoxia in mice; format: in vivo, mouse
[6] = system: ddY male mice, reserpine-induced immobility; experiment: Activity on reserpine-induced immobility (open-field method); format: in vivo, mouse; settings: reserpine 2 mg/kg, total of 1-min counts at 15, 30, 45, 60 min, ***p < 0.001
Procedure: Reserpine was administered intraperitoneally to ddY male mice (4 week old) at a dose of 2 mg/kg, and, after 18 to 20 hours, the test compound was administered intraperitoneally to the mice. Thereafter, the ambulation (the number of times of the animal crossed the demarcation line) of the mice was counted for a period of 1 minute at 15, 30, 45 and 60 minutes after the administration of the test compound, respectively, according to the open-field method. The total number of ambulation determined at 4 times in each mouse and compared with that of the control.

[7] = system: Rats with unilateral 6-hydroxydopamine lesion of the substantia nigra; experiment: Rotational activity in rats with unilateral 6-hydroxydopamine lesion of the substantia nigra; format: in vivo, rat
Procedure: Rats under pentobarbital sodium anesthesia (50 mg/kg, i.p.) were fixed on an apparatus for fixing brain, and 6-hydroxydopamine (8 μg/4 μl) was injected in the substantia nigra (A:3.0, L:2.6, D:7.8) according to Pellegrino & Cushman's atlas. Seven days after the injection of 6-hydroxydopamine, apomorphine was administered subcutaneously at a dose of 0.25 mg/kg, and the rats showing […] rotating movement to one side opposite to the destroyed side were selected. After 7 days, the test compound was administered intraperitoneally and, thereafter, rotating movement of the rats was observed over 1 minute at an interval of 5 minutes during a period of 60 minutes.

[8] = J. Affect. Disord., Vol. 1, 173 (1979); cited from earlier work
human = settings: in human, side-effect; cited from earlier work

Structure (SMILES) | Changes in Systolic Blood Pressure ([1]; 1 hr after administration) | Changes in Systolic Blood Pressure ([1]; 2 hrs after administration) | Changes in Systolic Blood Pressure ([1]; 4 hrs after administration) | Changes in Systolic Blood Pressure ([1]; 6 hrs after administration) | Changes in Systolic Blood Pressure ([1]; 24 hrs after administration) | Changes in Heart Rate ([2]; 1 hr after administration) | Changes in Heart Rate ([2]; 2 hrs after administration) | Changes in Heart Rate ([2]; 4 hrs after administration) | Changes in Heart Rate ([2]; 6 hrs after administration) | Changes in Heart Rate ([2]; 24 hrs after administration) | Ambulation ([6]; 10 mg/kg i.p., n = 6) | also measured
CN1C[C@H](CN2CCOC2=O)C[C@@H]2c3cccc4[nH]cc(c34)C[C@H]21 [Example 2, 3-(6-Methylergolin-8β-ylmethyl)oxazolidin-2-one] | -64 Δ mmHg | -36 Δ mmHg | -37 Δ mmHg | -52 Δ mmHg | -11 Δ mmHg | -39 Δ/min. | -74 Δ/min. | -58 Δ/min. | -56 Δ/min. | -23 Δ/min. |  | Volume of Acid Secreted, Inhibition [3]: 70.8%; Volume of Gastric Juice, Inhibition [3]: 63.3%; Total Acidity ([3]; *p < 0.05): 61.4 ± 7.5 mEq/liter; Ulcer Index Inhibition [4]: 92.7%; Ulcer Index ([4]; ***p < 0.001): 4.4 ± 2.3 mm; Survival Time ([5]; 10 mg/kg i.p., KCN 2.5 mg/kg i.v., **p < 0.01, ***p < 0.001, survivors counted as 180 sec): 144.4 ± 17.6 s; Number of Survived Mice/Total Mice ([5]; 10 mg/kg i.p., KCN 2.5 mg/kg i.v., survived longer than 3 minutes): 5/8; Brain protection activity (in words) ([5]; Table 5): exhibited the activity higher that that of dihydroergotoxine methanesulfonate
CN1CCc2cccc3c2[C@H]1Cc1ccc(O)c(O)c1-3 [Apomorphine Hydrochloride, reference compound] |  |  |  |  |  |  |  |  |  |  |  | Ambulation ([6]; 3 mg/kg i.p., n = 10): 71.0 ± 7.0; Number of Rotating Movement over 60 min. ([7]; 0.5 mg/kg i.p.): 147
CN1C[C@H](Cn2cncn2)C[C@@H]2c3cccc4[nH]cc(c34)C[C@H]21 [Example 6, 1-(6-Methylergolin-8β-ylmethyl)-1,2,4-triazole] | -64 Δ mmHg | -67 Δ mmHg | -62 Δ mmHg | -65 Δ mmHg | -14 Δ mmHg | -8 Δ/min. | -30 Δ/min. | -33 Δ/min. | -21 Δ/min. | -10 Δ/min. | 198.8 ± 32.2 | Duration of increase in spontaneous movement and sniffing ([7]; 10 mg/kg i.p.): more than 5 hours; Number of Rotating Movement over 60 min. ([7]; 10 mg/kg i.p.): 0; Spontaneous movement and sniffing ([7]; 10 mg/kg i.p.): Increase in spontaneous movement and sniffing occurred markedly
CC(C)C[C@H]1C(=O)N2CCC[C@H]2[C@]2(O)O[C@](NC(=O)[C@@H]3C=C4c5cccc6[nH]c(Br)c(c56)C[C@H]4N(C)C3)(C(C)C)C(=O)N12 [Bromocriptine Methanesulfonate] |  |  |  |  |  |  |  |  |  |  | 36.7 ± 12.3 | Anti-depressive activity (known) [8]: has been known to have an anti-depressive activity
NNc1nncc2ccccc12 [Hydralazine Hydrochloride, reference compound] | -47 Δ mmHg | -52 Δ mmHg | -67 Δ mmHg | -41 Δ mmHg | -22 Δ mmHg | 65 Δ/min. | 66 Δ/min. | 75 Δ/min. | 64 Δ/min. | 44 Δ/min. |  | Heart rate effect (in words) ([2]; Table 2): a marked increase in heart rate; Tachycardia (human): exhibited tachycardia in human as one of side-effects
